Measurements: patent EP0117260A1, “4-Aminobutyric acid derivatives, a process for the preparation thereof and a pharmaceutical composition containing said derivatives” (priority 1983, dated 1984)

Key:
[1] = Maximum tolerance (death observed 48 hours after administration); conditions: mouse, in vivo; mice; dose just smaller than the dose inducing death, observed 48 hours after the administration
[2] = Level of hopanthenic acid in blood plasma after oral administration (GC-MS); type: in vivo, SD-male rats; conditions: rat, 389.4 umol/kg, 389.4 µmole/kg, rats, n=4, read-out: Level of hopanthenic acid in the blood plasma (average ± S.D.)
Protocol: SD-male rats, weighing about 200 g, 7 weeks age, having been fasted overnight (one group: 4 rats) were used. To each rat was orally administered a suspension (2 ml) of a test compound in a 0.5 % carboxymethyl cellulose solution with a stomach sonde (dose of test compound: […], corresponding to 100 mg/kg of calcium hopanthenate).
One or two hours after the aministration, the rats were killed by cutting whole carotid arteries, and the blood was collected. The blood of each rat was centrifuged (2,800 r.p.m., 15 minutes) to separate blood plasma. Concentration of hopanthenic acid in the blood plasma (0.1 ml) was measured by gas chromatography and mass spectrometry.

[3] = Level of hopanthenic acid in the cerebrum after oral administration (GC-MS); type: in vivo, SD-male rats; conditions: rat, 389.4 umol/kg, 389.4 µmole/kg, rats, n=4, read-out: Level of hopanthenic acid in the cerebrum (average ± S.D.)
Protocol: SD-male rats, weighing about 200 g, 7 weeks age, having been fasted overnight (one group: 4 rats) were used. To each rat was orally administered a suspension (2 ml) of a test compound in a 0.5 % carboxymethyl cellulose solution with a stomach sonde (dose of test compound: 389.4 #mole/kg, corresponding to 100 mg/kg of calcium hopanthenate). Two or three hours after the administration, the cerebrum was taken out and washed with physiological saline solution. To the cerebrum was added 9 times volume of water, and the mixture was homogenated with a homogenizer for one minute under ice-cooling and then centrifuged at 10,000 r.p.m. at 4°C for one hour. Concentration of hopanthenic acid in the supernatant (1 ml, corresponding to 0.1 g of the cerebrum) was measured by gas chromatography and mass spectrometry. The test compounds were the same as used in Experiment 1.

[4] = Two hours after the administration

concentration at 1 h ([2]; One hour after the administration) | concentration at 2 h [2, 4] | concentration at 3 h ([3]; Three hours after the administration) | concentration at 2 h [3, 4] | SMILES | MTD at 48 h [1]
– | – | – | – | CC(C)C(=O)OCC(C)(C)[C@@H](O)C(=O)NCCCC(=O)O | > 2000 mg/kg
– | – | – | – | CC(C)CC(=O)OCC(C)(C)[C@@H](O)C(=O)NCCCC(=O)O [Compound No. 2, D-4-[N-(4-Isovaleryloxy-3,3-dimethyl-2-hydroxy-n-butyryl)-amino]-n-butyric acid] | > 2000 mg/kg
19400 ± 1900 ng/mL | 14200 ± 1600 ng/mL | 370 ± 70 ng/g | 700 ± 110 ng/g | CC(C)(CO)[C@@H](O)C(=O)NCCCC(=O)O [Control, Calcium D-4-[N-(2,4-dihydroxy-3,3-dimethyl-n-butyryl)amino]-n-butyrate] | –
